Measurements from US20230391726A1, “DIHYDROQUINAZOLINONES AND RELATED ANALOGS FOR INHIBITING YAP/TAZ-TEAD” (THE KATHOLIEKE UNIVERSITEIT LEUVEN, priority 2022, published 2023).

Columns and labels:
Type in all cases: cell-based
[1] = system: YAP/TAZ-TEAD transcription; assay: Reporter gene assay for measuring the inhibition of YAP/TAZ-TEAD transcription (TEAD-responsive element luciferase reporter in Hek293T cells); conditions: Homo sapiens, HEK-293T; Hek293T cells transfected with TEAD-responsive element luciferase reporter, 24 hours incubation
Protocol: Hek293T cells are cultured in DMEM supplemented with 10% fetal bovine serum, Sodium pyruvate, Sodium bicarbonate, L-glutamine. The cells are harvested and transiently transfected with TEAD-responsive element luciferase reporter. Transfected cells are plated in 384-wells plate containing pre-diluted compounds. After 24 hours incubation at 37° C./5% CO2, assay plates were cooled down to RT and levelled to an equal volume per well, prior to the addition of 25 uL luciferase substrate SteadyLite (Perkin Elmer)/well. The plate was shaken for 10 min at 600 rpm, centrifuged for 1 min at 500 rpm and measured with an Envision reader (PerkinElmer). The amount of relative light units produced by the TEAD reporter is used to calculated percent of inhibition.
The percent of reporter inhibition was calculated in the presence of a positive control inhibitor (100% inhibition) versus a condition with the presence of the vehicle basal activity of the reporter (0% inhibition). The ability of a test compound to inhibit this activity was determined as:
Percentage inhibition=[1-((RLU determined in the presence of vehicle−RLU determined for sample with test compound present) divided by (RLU determined in the presence of vehicle−RLU determined for sample with positive control inhibitor))]*100
The activities of example compounds tested are depicted in Table 3. The activity ranges A, B and C refer to IC50 values in the reporter gene assay as follows: “A”: IC50<1 μM; “B”: 1 μM≤IC50≤20 μM and “C”: IC50>20 μM; NT=not tested.

NCl-H226 = assay: Mesothelioma cell line proliferation assay (ATPlite), NCl-H226; conditions: Homo sapiens, NCI-H226, 144 h, NCl-H226 mesothelioma cells, 6 days incubation
Protocol: (§1) Mesothelioma cell lines, NCl-H226 and NCl-H2052 (all sourced from the ATCC cell culture collection) are plated in 96-well plates (Corning® 96 Well White Polystyrene Microplate clear flat bottom, white polystyrene (TC-Treated)), at 1500 cells/well in full medium (RPMI 1640 ATCC modification with L-glutamine, HEPES, Phenol Red, Sodium Pyruvate, High glucose, Low sodium bicarbonate and 10% fetal bovine serum). Cells are incubated overnight at 37° C. in an incubator with 5% CO2. Then compounds, dissolved in DMSO, are added in dose-response. Cells are incubated with compound dilutions for another 6 days at 37° C. in an incubator with 5% CO2. Cell viability is quantitated using the ATPlite kit (Perkin-Elmer) and the luminescence is read-out using an Envision instrument (Perkin-Elmer). The amount of relative light units produced using the ATPlite kit is used to calculated percent of inhibition.
(§2) The activities of some example compounds are depicted in Table 4. The activity ranges A, B and C refer to EC50 values in the mesothelioma cell line proliferation assay as described as follows: “A”: EC50<1 μM; “B”: 1 μM≤EC50≤10 μM and “C”: EC50>10 μM; NT: not tested.

NCl-H2052 = assay: Mesothelioma cell line proliferation assay (ATPlite), NCl-H2052; conditions: Homo sapiens, NCI-H2052, 144 h, NCl-H2052 mesothelioma cells, 6 days incubation
Protocol: as §1, §2

SMILES: O=C(O)CN1CN(c2ccc(C(F)(F)F)cc2)c2ccccc2C1=O [Cpd. No. 3, 2-(4-oxo-1-(4-(trifluoromethyl)phenyl)-1,4-dihydroquinazolin-3(2H)-yl)acetic acid]
- EC50 [1]: 1 to 20 µM

SMILES: CNC(=O)CN1CN(c2ccc(C(F)(F)F)cc2)c2ccccc2C1=O [Cpd. No. 6, N-methyl-2-(4-oxo-1-(4-(trifluoromethyl)phenyl)-1,4-dihydroquinazolin-3(2H)-yl)acetamide]
- EC50 [1]: > 20 µM

SMILES: C=CC(=O)NC1CN(c2ccccc2)c2ccccc2C1=O (stereo not drawn) [Cpd. No. 7, N-(4-oxo-1-phenyl-1,2,3,4-tetrahydroquinolin-3-yl)acrylamide]
- EC50 [1]: 1 to 20 µM

SMILES: O=C1NCN(c2ccc(C(F)(F)F)cc2)c2ccccc21 [Cpd. No. 1, 1-(4-(trifluoromethyl)phenyl)-2,3-dihydroquinazolin-4(1H)-one]
- EC50 (NCl-H226): > 10 µM
- EC50 [1]: 1 to 20 µM
- EC50 (NCl-H2052): > 10 µM

SMILES: O=C1c2ccccc2N(c2ccc(C(F)(F)F)cc2)CN1CCCO [Cpd. No. 2, 3-(3-hydroxypropyl)-1-(4-(trifluoromethyl)phenyl)-2,3-dihydroquinazolin-4(1H)-one]
- EC50 [1]: 1 to 20 µM

SMILES: NC(=O)CN1CN(c2ccc(C(F)(F)F)cc2)c2ccccc2C1=O [Cpd. No. 5, 2-(4-oxo-1-(4-(trifluoromethyl)phenyl)-1,4-dihydroquinazolin-3(2H)-yl)acetamide]
- EC50 [1]: > 20 µM

SMILES: O=C1c2ccccc2N(c2ccc(C(F)(F)F)cc2)CN1CCO [Cpd. No. 4, 3-(2-hydroxyethyl)-1-(4-(trifluoromethyl)phenyl)-2,3-dihydroquinazolin-4(1H)-one]
- EC50 [1]: 1 to 20 µM
